Source: patent US20170196913A1, “ENHANCEMENT OF GLUCOSE-STIMULATED INSULIN SECRETION BY CELLS THROUGH INDUCTION OF CELLULAR SENESCENCE” (YISSUM RESEARCH DEVELOPMENT COMPANY OF THE HEBREW …, priority 2016, published 2017)

Key:
Format in all cases: cell-based, human
[1] = tested on: EndoC-βH2 cells; assay: Glucose stimulated insulin secretion (GSIS) of Cre-infected EndoC-βH2 cells, ELISA; parameters: GSIS (insulin levels secreted): dose or concentration left out as unconfirmed; details: EndoC-βH2 cells infected with Cre, versus vehicle
[2] = tested on: EndoC-βH2 cells; assay: Mitochondrial activity (membrane potential) by TMRE staining, FACS, of Cre-infected EndoC-βH2 cells; details: EndoC-βH2 cells three weeks after Cre infection
[3] = tested on: EndoC-βH2 cells; assay: Cell size (FSC) by FACS of Cre-infected EndoC-βH2 cells; details: EndoC-βH2 cells three weeks after Cre infection, 250 nM Torin1 versus vehicle

| SMILES | GSIS (insulin levels secreted) ([1]; GW9662 twice a week for 3 weeks) | mitochondrial activity (TMRE staining) ([2]; GW9662 50 mM twice a week, versus vehicle) | levels of insulin secretion ([1]; 250 nM Torin1 starting 3 days after infection, for 3 weeks, low glucose 2.8 mM then high glucose 16.7 mM for 1 hour) | cell size (FSC) [3] | mitochondrial activity (TMRE staining) ([2]; 250 nM Torin1 versus vehicle) |
| --- | --- | --- | --- | --- | --- |
| O=C(Nc1ccccc1)c1cc([N+](=O)[O-])ccc1Cl [GW9662] | reduced GSIS | reduced | – | – | – |
| CCC(=O)N1CCN(c2ccc(-n3c(=O)ccc4cnc5ccc(-c6cnc7ccccc7c6)cc5c43)cc2C(F)(F)F)CC1 [Torin1] | – | – | lower levels of insulin secretion | reduced size | reduced |
